Experimental data taken from PubChem BioAssay (NCI).
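Following 48 hours of exposure in 96-well plates, responses at five concentrations were used to interpolate endpoints linearly. TGI: total growth inhibition.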

How the values were obtained:
Assay in all cases: growth of human tumour cells (NCI), 48 h
[1] = system: UACC-257 melanoma
[2] = system: SN12C renal
[3] = system: TK-10 renal
[4] = system: LOX IMVI melanoma
[5] = system: DU-145 prostate
[6] = system: KM12 colon
[7] = system: M14 melanoma
[8] = system: SF-295 CNS
[9] = system: SK-MEL-28 melanoma
[10] = system: SF-539 CNS
[11] = system: NCI-H460 lung
[12] = system: A549 NSCLC
[13] = system: NCI/ADR-RES ovarian
[14] = system: RPMI-8226 leukemia
[15] = system: HT29 colon
[16] = system: SK-OV-3 ovarian
[17] = system: EKVX NSCLC
[18] = system: NCI-H226 lung
[19] = system: MCF7 breast
[20] = system: PC-3 prostate
[21] = system: NCI-H522 lung
[22] = system: MDA-N
[23] = system: SK-MEL-2 melanoma
[24] = system: OVCAR-5 ovarian
[25] = system: A498 renal
[26] = system: COLO 205 colon
[27] = system: T-47D breast
[28] = system: SW-620 colon
[29] = system: HOP-92 NSCLC
[30] = system: SNB-75 CNS
[31] = system: MDA-MB-231 breast
[32] = system: SNB-19 CNS
[33] = system: IGROV1 ovarian
[34] = system: NCI-H23 lung
[35] = system: HL-60(TB) leukemia
[36] = system: HS 578T breast
[37] = system: MALME-3M melanoma
[38] = system: SF-268 CNS
[39] = system: UO-31 renal
[40] = system: ACHN renal
[41] = system: 786-0 renal
[42] = system: OVCAR-4 ovarian
[43] = system: OVCAR-8 ovarian
[44] = system: SK-MEL-5 melanoma
[45] = system: SR leukemia
[46] = system: HOP-62 NSCLC
[47] = system: BT-549 breast
[48] = system: UACC-62 melanoma
[49] = system: HCT-15 colon
[50] = system: MDA-MB-435
[51] = system: CAKI-1 renal
[52] = system: RXF 393 renal
[53] = system: K-562 leukemia
[54] = system: OVCAR-3 ovarian
[55] = system: U251 CNS
[56] = system: HCT-116 colon
[57] = system: MOLT-4 leukemia
[58] = system: CCRF-CEM leukemia
[59] = system: HCC-2998 colon

In the case of `Cc1c(C(=O)O)nc(/C=C/C(=O)O)[nH]c1=O`, the TGI [1] is reported as greater than 100 µM, the TGI [2] is reported as greater than 100 µM and the TGI [3] is reported as greater than 100 µM. The TGI [4] was greater than 100 µM, the TGI [5] was greater than 100 µM and the TGI [6] was greater than 100 µM. It also gave a TGI [7] greater than 100 µM, a TGI [8] greater than 100 µM and a TGI [9] greater than 100 µM. For the same compound, the TGI [10] was greater than 100 µM, the TGI [11] was greater than 100 µM and the TGI [12] was greater than 100 µM. The TGI [13] was greater than 100 µM, the TGI [14] was greater than 100 µM and the TGI [15] was greater than 100 µM. For the same compound, the TGI [16] was greater than 100 µM, the TGI [17] was greater than 100 µM and the TGI [18] was greater than 100 µM. It also gave a TGI [19] greater than 100 µM, a TGI [20] greater than 100 µM and a TGI [21] greater than 100 µM. It also gave a TGI [22] greater than 100 µM, a TGI [23] greater than 100 µM and a TGI [24] greater than 100 µM. The TGI [25] was greater than 100 µM, the TGI [26] was greater than 100 µM and the TGI [27] was greater than 100 µM. It also gave a TGI [28] greater than 100 µM, a TGI [29] greater than 100 µM and a TGI [30] greater than 100 µM. For the same compound, the TGI [31] was greater than 100 µM, the TGI [32] was greater than 100 µM and the TGI [33] was greater than 100 µM. For the same compound, the TGI [34] was greater than 100 µM, the TGI [35] was greater than 100 µM and the TGI [36] was greater than 100 µM. For the same compound, the TGI [37] was greater than 100 µM, the TGI [38] was greater than 100 µM and the TGI [39] was greater than 100 µM. For the same compound, the TGI [40] was greater than 100 µM, the TGI [41] was greater than 100 µM and the TGI [42] was greater than 100 µM. It also gave a TGI [43] greater than 100 µM, a TGI [44] greater than 100 µM and a TGI [45] greater than 100 µM. For the same compound, the TGI [46] was greater than 100 µM, the TGI [47] was greater than 100 µM and the TGI [48] was greater than 100 µM. For the same compound, the TGI [49] was greater than 100 µM, the TGI [50] was greater than 100 µM and the TGI [51] was greater than 100 µM. For the same compound, the TGI [52] was greater than 100 µM, the TGI [53] was greater than 100 µM and the TGI [54] was greater than 100 µM. The TGI [55] was greater than 100 µM, the TGI [56] was greater than 100 µM and the TGI [57] was greater than 100 µM. It also gave a TGI [58] greater than 100 µM.

`O=C1/C(=C/c2cccc([N+](=O)[O-])c2)N=C(c2ccccc2)N1c1nc2c(Cl)cc(Cl)cc2s1` was tested, and the TGI [1] was greater than 100 µM, the TGI [2] was 54.7 µM and the TGI [3] was greater than 100 µM. For the same compound, the TGI [4] was 32.7 µM, the TGI [5] was 70.1 µM and the TGI [6] was 45 µM. The TGI [7] was 46.8 µM, the TGI [8] was greater than 100 µM and the TGI [9] was greater than 100 µM. It also gave a TGI [10] of 48.1 µM, a TGI [11] greater than 100 µM and a TGI [12] of 52.2 µM. For the same compound, the TGI [13] was 85.4 µM, the TGI [14] was greater than 100 µM and the TGI [15] was 40 µM. The TGI [16] was 85.7 µM, the TGI [17] was 53.3 µM and the TGI [19] was 93.8 µM. For the same compound, the TGI [20] was 64.4 µM, the TGI [22] was 39.2 µM and the TGI [23] was 48 µM. The TGI [24] was 87.9 µM, the TGI [25] was 57.8 µM and the TGI [26] was greater than 100 µM. The TGI [27] was 68.9 µM, the TGI [28] was 73.1 µM and the TGI [29] was 77.9 µM. It also gave a TGI [31] greater than 100 µM, a TGI [32] of 65.4 µM and a TGI [33] of 58.2 µM. It also gave a TGI [35] of 60.9 µM, a TGI [36] of 73.6 µM and a TGI [38] of 78.1 µM. It also gave a TGI [39] of 49.6 µM, a TGI [40] of 74.2 µM and a TGI [41] greater than 100 µM. It also gave a TGI [42] of 71.8 µM, a TGI [43] of 49.5 µM and a TGI [44] of 33.5 µM. It also gave a TGI [45] of 57.9 µM, a TGI [46] of 45 µM and a TGI [47] of 94.6 µM. It also gave a TGI [48] greater than 100 µM, a TGI [49] greater than 100 µM and a TGI [50] of 46 µM. It also gave a TGI [51] greater than 100 µM, a TGI [52] of 55 µM and a TGI [59] of 61.9 µM. For the same compound, the TGI [53] was greater than 100 µM, the TGI [54] was 39.1 µM and the TGI [55] was 37.2 µM. The TGI [56] was 37.4 µM, the TGI [57] was 71.8 µM and the TGI [58] was 23.5 µM.

With `CCOc1ccc(N=NC2C(=O)N(C(=O)CC(=O)Nc3ccc(C)cc3)N=C2C)cc1` (stereo unspecified) the TGI [1] was greater than 100 µM, the TGI [2] was greater than 100 µM and the TGI [3] was 93.2 µM. The TGI [4] was 27.7 µM, the TGI [5] was greater than 100 µM and the TGI [6] was greater than 100 µM. It also gave a TGI [7] greater than 100 µM, a TGI [8] of 49.4 µM and a TGI [9] greater than 100 µM. The TGI [10] was 36.5 µM, the TGI [11] was 43.8 µM and the TGI [12] was greater than 100 µM. It also gave a TGI [13] of 79.2 µM, a TGI [15] greater than 100 µM and a TGI [17] of 40.9 µM. For the same compound, the TGI [18] was 88.4 µM, the TGI [19] was greater than 100 µM and the TGI [20] was greater than 100 µM. The TGI [22] was 13.9 µM, the TGI [23] was greater than 100 µM and the TGI [24] was greater than 100 µM. For the same compound, the TGI [25] was 52.5 µM, the TGI [26] was greater than 100 µM and the TGI [27] was greater than 100 µM. The TGI [28] was greater than 100 µM, the TGI [29] was 39.9 µM and the TGI [30] was 23.2 µM. The TGI [31] was 35.8 µM, the TGI [32] was 51 µM and the TGI [33] was greater than 100 µM. The TGI [34] was greater than 100 µM, the TGI [35] was greater than 100 µM and the TGI [36] was 40.1 µM. The TGI [37] was greater than 100 µM, the TGI [38] was 75.2 µM and the TGI [39] was 78.7 µM. It also gave a TGI [40] greater than 100 µM, a TGI [41] of 29.5 µM and a TGI [42] of 95.7 µM. The TGI [43] was 31.2 µM, the TGI [44] was greater than 100 µM and the TGI [45] was greater than 100 µM. The TGI [46] was 34.3 µM, the TGI [47] was greater than 100 µM and the TGI [48] was 52.6 µM. The TGI [49] was greater than 100 µM, the TGI [50] was 10.9 µM and the TGI [51] was greater than 100 µM. It also gave a TGI [59] greater than 100 µM, a TGI [54] greater than 100 µM and a TGI [55] of 32.2 µM. The TGI [56] was 25.8 µM, the TGI [57] was greater than 100 µM and the TGI [58] was greater than 100 µM.
